Results taken from ChEMBL document CHEMBL4118193, “1,2,3,4,6-Penta-O-galloyl-β-d-glucose suppresses colon cancer through induction of tumor suppressor” (Bioorg Med Chem Lett, 2018).
Calls of active or inactive are those of the source. The rule behind the calls is not given here.

How the values were obtained:
HCT-116 [1] = assay: Antiproliferative activity against human HCT116 cells at 1 to 10 uM after 48 hrs by CytoTox-96 non-radioactive assay; assay type: functional, cell-based
HCT-116 [2] = assay: Cell cycle arrest in human HCT116 cells assessed as accumulation at G0/G1 phase at 5 uM after 48 hrs (reference value: 38.5%); assay type: functional
HCT-116 [3] = assay: Cell cycle arrest in human HCT116 cells assessed as accumulation at S phase at 2.5 uM after 48 hrs (reference value: 10.9%); assay type: functional
HCT-116 [4] = assay: Cell cycle arrest in human HCT116 cells assessed as accumulation at G2/M phase at 2.5 uM after 48 hrs (reference value: 21.5%); assay type: functional
HT-29 [5] = assay: Cell cycle arrest in human HT-29 cells assessed as accumulation at G0/G1 phase at 2.5 uM after 48 hrs (reference value: 53.9%); assay type: functional
HT-29 [6] = assay: Cell cycle arrest in human HT-29 cells assessed as accumulation at S phase at 2.5 uM after 48 hrs (reference value: 9.7%); assay type: functional
HT-29 [7] = assay: Cell cycle arrest in human HT-29 cells assessed as accumulation at G2/M phase at 1 uM after 48 hrs (reference value: 14.7%); assay type: functional
HT-29 [8] = assay: Cell cycle arrest in human HT-29 cells assessed as accumulation at G2/M phase at 2.5 uM after 48 hrs (reference value: 14.7%); assay type: functional
HCT-116 [9] = assay: Induction of apoptosis in human HCT116 cells assessed as live cells at 2.5 uM after 48 hrs by Annexin-V and dead cell assay (reference value: 96.75%); assay type: functional
HCT-116 [10] = assay: Induction of apoptosis in human HCT116 cells assessed as early apoptotic cells at 5 uM after 48 hrs by Annexin-V and dead cell assay (reference value: 1.70%); assay type: functional
HCT-116 [11] = assay: Induction of apoptosis in human HCT116 cells assessed as early apoptotic cells at 10 uM after 48 hrs by Annexin-V and dead cell assay (reference value: 1.70%); assay type: functional
HCT-116 [12] = assay: Induction of apoptosis in human HCT116 cells assessed as late apoptotic cells at 1 uM after 48 hrs by Annexin-V and dead cell assay (reference value: 1.45%); assay type: functional
HCT-116 [13] = assay: Induction of apoptosis in human HCT116 cells assessed as necrotic cells at 1 uM after 48 hrs by Annexin-V and dead cell assay (reference value: 0.10%); assay type: functional
HCT-116 [14] = assay: Induction of apoptosis in human HCT116 cells assessed as necrotic cells at 2.5 uM after 48 hrs by Annexin-V and dead cell assay (reference value: 0.10%); assay type: functional
HCT-116 [15] = assay: Induction of apoptosis in human HCT116 cells assessed as p21 protein level at 2.5 uM after 48 hrs by Western blot method relative to beta-actin; assay type: functional
HCT-116 [16] = assay: Induction of apoptosis in human HCT116 cells assessed as p21 protein level at 10 uM after 48 hrs by Western blot method relative to beta-actin; assay type: functional
HCT-116 [17] = assay: Induction of apoptosis in human HCT116 cells assessed as cyclin E protein level at 2.5 uM after 48 hrs by Western blot method relative to beta-actin; assay type: functional
HCT-116 [18] = assay: Induction of apoptosis in human HCT116 cells assessed as cyclin E protein level at 10 uM after 48 hrs by Western blot method relative to beta-actin; assay type: functional
HCT-116 [19] = assay: Induction of apoptosis in human HCT116 cells assessed as CDK2 protein level at 1 uM after 48 hrs by Western blot method relative to beta-actin; assay type: functional
HCT-116 [20] = assay: Induction of apoptosis in human HCT116 cells assessed as CDK2 protein level at 5 uM after 48 hrs by Western blot method relative to beta-actin; assay type: functional
HCT-116 [21] = assay: Induction of apoptosis in human HCT116 cells assessed as CDK2 protein level at 10 uM after 48 hrs by Western blot method relative to beta-actin; assay type: functional
HCT-116 [22] = assay: Induction of apoptosis in human HCT116 cells assessed as Bcl-2 protein level at 1 uM after 48 hrs by Western blot method relative to beta-actin; assay type: functional
HCT-116 [23] = assay: Induction of apoptosis in human HCT116 cells assessed as Bcl-2 protein level at 10 uM after 48 hrs by Western blot method relative to beta-actin; assay type: functional
HCT-116 [24] = assay: Induction of apoptosis in human HCT116 cells assessed as caspase-3 protein level at 5 uM after 48 hrs by Western blot method relative to beta-actin; assay type: functional
HT-29 [25] = assay: Induction of apoptosis in human HT-29 cells assessed as p53 protein level at 1 uM after 48 hrs by Western blot method relative to beta-actin; assay type: functional
HT-29 [26] = assay: Induction of apoptosis in human HT-29 cells assessed as cyclin E protein level at 5 uM after 48 hrs by Western blot method relative to beta-actin; assay type: functional
HT-29 [27] = assay: Induction of apoptosis in human HT-29 cells assessed as Bcl-2 protein level at 1 uM after 48 hrs by Western blot method relative to beta-actin; assay type: functional
HT-29 [28] = assay: Induction of apoptosis in human HT-29 cells assessed as cleaved caspase-3 protein level at 1 uM after 48 hrs by Western blot method relative to caspase-3; assay type: functional
HT-29 [29] = assay: Induction of apoptosis in human HT-29 cells assessed as caspase-3 protein level at 1 uM after 48 hrs by Western blot method relative to beta-actin; assay type: functional
HT-29 [30] = assay: Induction of apoptosis in human HT-29 cells assessed as caspase-3 protein level at 5 uM after 48 hrs by Western blot method relative to beta-actin; assay type: functional
HCT-116 [31] = assay: Induction of apoptosis in human HCT116 cells assessed as increase in caspase-3/7 activity at 1 to 10 uM measured after 48 hrs by Caspase-Glo 3/7 assay; assay type: functional, cell-based
HT-29 [32] = assay: Induction of apoptosis in human HT-29 cells assessed as increase in caspase-3/7 activity at 1 to 10 uM measured after 48 hrs by Caspase-Glo 3/7 assay; assay type: functional, cell-based
HT-29 [33] = assay: Cytotoxicity against human HT-29 cells assessed as reduction in cell viability by MTT assay; assay type: functional, cell-based

With O=C(OC[C@H]1O[C@@H](OC(=O)c2cc(O)c(O)c(O)c2)[C@H](OC(=O)c2cc(O)c(O)c(O)c2)[C@@H](OC(=O)c2cc(O)c(O)c(O)c2)[C@@H]1OC(=O)c1cc(O)c(O)c(O)c1)c1cc(O)c(O)c(O)c1 [PENTAGALLOYL GLUCOSE] the Activity (HCT-116 [1]) was “Active”, the Activity (HCT-116 [2]) was 17.9% and the Activity (HCT-116 [3]) was 9%. For the same compound, the Activity (HCT-116 [4]) was 20.5%, the Activity (HT-29 [5]) was 47.2% and the Activity (HT-29 [6]) was 13.4%. For the same compound, the Activity (HT-29 [7]) was 14.8%, the Activity (HT-29 [8]) was 20.8% and the Activity (HCT-116 [9]) was 97.55%. It also gave an Activity (HCT-116 [10]) of 1.85%, an Activity (HCT-116 [11]) of 3.2% and an Activity (HCT-116 [12]) of 0.65%. The Activity (HCT-116 [13]) was 0.1%, the Activity (HCT-116 [14]) was 0.1% and the “fold change (FC)” value (HCT-116 [15]) was 1.4. The “fold change (FC)” value (HCT-116 [16]) was 1.6, the “fold change (FC)” value (HCT-116 [17]) was 1.6 and the “fold change (FC)” value (HCT-116 [18]) was 0.5. For the same compound, the “fold change (FC)” value (HCT-116 [19]) was 0.9, the “fold change (FC)” value (HCT-116 [20]) was 0.4 and the “fold change (FC)” value (HCT-116 [21]) was 0.3. The “fold change (FC)” value (HCT-116 [22]) was 1.3, the “fold change (FC)” value (HCT-116 [23]) was 0.7 and the “fold change (FC)” value (HCT-116 [24]) was 309.9. For the same compound, the “fold change (FC)” value (HT-29 [25]) was 0.7, the “fold change (FC)” value (HT-29 [26]) was 0.8 and the “fold change (FC)” value (HT-29 [27]) was 0.7. The “fold change (FC)” value (HT-29 [28]) was 3, the “fold change (FC)” value (HT-29 [29]) was 1.6 and the “fold change (FC)” value (HT-29 [30]) was 5.9. The Activity (HCT-116 [31]) was “Active”, the Activity (HT-29 [32]) was “Active” and the IC50 (HT-29 [33]) was 4.46 µM.
